Data taken from paper PMC12390126, “Human Skin Permeation of Ethoxy- and Propoxypropanol Commonly Found in Water-Based Products” (Toxics, 2025).

What was measured:
[1] = Mass balance of flow-through diffusion cell experiments; type: in vitro ADME, human; conditions: for Receptor Chamber (percentage of applied dose): remaining fluid at end
Experimental: A mass balance was performed only for flow-through diffusion cell experiments following the OECD guidelines, where the mean recovery should be 100 ± 10% [20]. The following components of the test system were analyzed to determine recovery: donor chamber, skin, and receptor chamber. The donor chamber was rinsed three times with 500 µL of water (donor chamber samples), the skin disk was sonicated three times for five minutes in water (skin samples), and the remaining fluid receptor chamber was collected (receptor chamber samples). If liquid was present in the donor chamber at the end of the experiment, it was also collected and analyzed with the donor chamber samples. PGE concentrations were quantified in all mass balance samples by GC-MS/MS, i.e., donor chamber rinsing water, water collected after sonication of skin, and remaining fluid receptor chamber. Mean concentrations of PGEE and PGPE were calculated for all cells in both conditions (neat or aqueous), and the results were reported as the percentage of the applied dose.

[2] = Workplace scenario: estimated internal dose and blood concentration after dermal exposure; set-up: species or system human; conditions: 8 h
Experimental: The cumulative amount of PGEE and PGPE in the receptor fluid (µg/cm^2, y-axis) was plotted separately over time (hours, x-axis), and the permeability rate (J), the lag time (Tlag), and the permeability coefficient (Kp) were determined from the generated permeability curve. J (µg/cm^2/h) was calculated as the slope of the steepest linear part of the curve (apparent steady state), and Tlag (h) as its x-axis intercept. Kp (cm/h) was calculated by dividing J with the chemical concentration applied to the skin when diluted in water and with the glycol ether’s density when applied neat. The maximal internal dose in the bloodstream was estimated using the permeability rate obtained for the experiments and calculated as follows:IDmean = J [µg/cm^2/h] × SA [cm^2] × t [h] × P,(1) where IDmean is the mean internal dose of PGEE or PGPE after skin exposure, J is the experimental permeability rate, SA represents the surface area exposed to the solvent, t is the time of exposure, and P represents the average percentage of PGEs in commercialized products. We used the J from the aqueous experiments because PGEs are mostly present in water-based products. The surface area exposed was set to 10.4 cm^2 for the hands alone, and 14.2 cm^2 when including the forearms. The total blood volume used for the blood concentration calculation was 5 L [29]. In Switzerland, paint products on the market for both professional and consumer uses contain, on average, 22.3% of PGEE and/or 5.9% of PGPE [17].
Recreating a workplace scenario, the mean internal dose after one workday for a worker in contact with products containing PGEE or PGPE was estimated based on our results. Mixing tasks are common in companies that use paint products, such as those in the construction and car repair industries. This task usually involves opening containers and mixing large quantities of paint. Workers’ hands, and occasionally forearms, are often contaminated by paint splashes and contact with various painting equipment. Based on our in vitro results and assuming dermal exposure only, after one 8 h workday, with a SA of 10.4 cm^2 and PGEs content of either 22.3% or 5.9%, the mean estimated internal dose for a worker performing a paint mixing task without wearing gloves is 8.3 mg of PGEE (see Equation (1)). This corresponds to a blood concentration of 1.7 mg/L. Under the same conditions, if the worker is exposed to products containing PGPE, the mean estimated internal dose after one workday is 0.9 mg, corresponding to a blood concentration of 0.2 mg/L. The addition of water to the mixture, for example, from perspiration or from the water-based product itself, increases the estimated internal dose to 19.9 mg (3.9 mg/L) for PGEE exposure and 4.1 mg (0.8 mg/L) for PGPE exposure. Some paint products may contain both PGEs mixed with other chemical substances; however, mixtures were not considered in this scenario. Further studies are necessary to investigate the effects of chemical mixtures on glycol ether skin permeation. Furthermore, PGEE and PGPE are volatile organic compounds, so workers can be exposed not only through direct skin contact but also via skin vapor absorption through the skin or inhalation. Therefore, the blood concentrations estimated in our workplace scenario would likely be higher under real working conditions involving all routes of absorption. Since no biological reference values are currently available for these compounds, it is not possible to estimate the potential risks associated with exposure at these blood concentrations. However, due to the high skin permeation of these compounds, workers and consumers must wear appropriate protective equipment to limit their exposure.

[3] = set-up: method as in earlier work; conditions: cited from earlier work
[4] = SA 10.4 cm^2, content 22.3% PGEE or 5.9% PGPE, blood volume 5 L, no added water
[5] = SA 10.4 cm^2, content 22.3% PGEE or 5.9% PGPE, dermal only, no added water
[6] = with addition of water to the mixture, SA 10.4 cm^2, 22.3% PGEE or 5.9% PGPE

## CCCOCC(C)O (stereo not shown) [PGPE, propoxypropanol]
[1]; 50:50 (aq)
  Donor Chamber (percentage of applied dose): 0.05%
  Receptor Chamber over 24 h (sum of receptor fluid collected at different time points): 24.1%
  Recovery (percentage of applied dose): 24.6%
  Receptor Chamber (percentage of applied dose): 0.4%
[1]; neat
  Donor Chamber (percentage of applied dose): 0.18%
  Receptor Chamber over 24 h (sum of receptor fluid collected at different time points): 9.4%
  Recovery (percentage of applied dose): 9.9%
  Receptor Chamber (percentage of applied dose): 0.3%
[2]; [4]
  estimated blood concentration: 0.2 mg/L
[2]; [5]
  mean estimated internal dose after one workday: 0.9 mg
[2]; [6]
  mean estimated internal dose after one workday: 4.1 mg
[2]; with addition of water to the mixture, SA 10.4 cm^2, blood volume 5 L
  estimated blood concentration: 0.8 mg/L
[3]
  LogP: 0.7

## CCOCC(C)O (stereo not shown) [PGEE]
[1]; 50:50 (aq)
  Donor Chamber (percentage of applied dose): 0.02%
  Receptor Chamber over 24 h (sum of receptor fluid collected at different time points): 44.0%
  Recovery (percentage of applied dose): 45.1%
  Receptor Chamber (percentage of applied dose): 1.1%
[1]; neat
  Donor Chamber (percentage of applied dose): 0.0003%
  Receptor Chamber over 24 h (sum of receptor fluid collected at different time points): 16.8%
  Recovery (percentage of applied dose): 17.3%
  Receptor Chamber (percentage of applied dose): 0.5%
[2]; [4]
  estimated blood concentration: 1.7 mg/L
[2]; [5]
  mean estimated internal dose after one workday: 8.3 mg
[2]; [6]
  mean estimated internal dose after one workday: 19.9 mg
[3]
  LogP: 0.2
